Data reported in patent publication US12077503B2, “Substituted cyclic amides and their use as herbicides” (FMC CORPORATION, priority 2015, dated 2024).

Assays:
Assay type in all cases: in vivo
[1] = system: barnyardgrass (Echinochloa crus-galli); test: Test B flooded paddy test; settings: Echinochloa crus-galli, 250 g ai/ha, Flood; 0 to 100 scale where 0 is no effect and 100 is complete control; read-out: Barnyardgrass plant response rating
Summary of the method: (§1)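 Greenhouse paddy pots with 2-leaf stage plants received compound by direct addition to floodwater 3 cm deep, kept at that level. Scored visually at 13–15 d versus controls (0 no effect; 100 complete control).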

[2] = system: rice (Oryra sativa); test: Test B flooded paddy test; settings: Oryza sativa, 250 g ai/ha, Flood; 0 to 100 scale where 0 is no effect and 100 is complete control; read-out: Rice plant response rating
Summary of the method: as §1

[3] = system: sedge, umbrella (small-flower umbrella sedge, Cyperus difformis); test: Test B flooded paddy test; settings: Cyperus difformis, 250 g ai/ha, Flood; 0 to 100 scale where 0 is no effect and 100 is complete control; read-out: Sedge, Umbrella plant response rating
Summary of the method: as §1

[4] = system: ducksalad (Heteranthera limosa); test: Test B flooded paddy test; settings: Heteranthera limosa, 250 g ai/ha, Flood; 0 to 100 scale where 0 is no effect and 100 is complete control; read-out: Ducksalad plant response rating
Summary of the method: as §1

[5] = system: corn (Zea mays); test: Test A postemergence; settings: Zea mays, post-emergence, 240 h
Summary of the method: (§2)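 Seeded soil received test chemicals as a preemergence directed spray, and seedlings at one to two leaves, 2–10 cm tall, received them postemergence, in a non-phytotoxic, surfactant-containing solvent mixture. Pots were held in a greenhouse for approximately 10 d, then rated for injury from 0, no effect, to 100, complete control.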

[6] = system: barnyardgrass (Echinochloa crus-galli); test: Test A postemergence; settings: Echinochloa crus-galli, post-emergence, 240 h
Summary of the method: as §2

[7] = system: wheat (Triticum aestivum); test: Test A postemergence; settings: Triticum aestivum, post-emergence, 240 h
Summary of the method: as §2

[8] = system: Galium (catchweed bedstraw, Galium aparine); test: Test A postemergence; settings: Galium, post-emergence, 240 h
Summary of the method: as §2

[9] = system: ragweed (common ragweed, Ambrosia elatior); test: Test A postemergence; settings: Ambrosia artemisiifolia, post-emergence, 240 h
Summary of the method: as §2

[10] = system: ryegrass, Italian (Italian ryegrass, Lolium multiflorum); test: Test A postemergence; settings: Lolium multiflorum, post-emergence, 240 h
Summary of the method: as §2

[11] = system: pigweed (Amaranthus retroflexus); test: Test A postemergence; settings: Amaranthus retroflexus, post-emergence, 240 h
Summary of the method: as §2

[12] = system: Kochia (Kochia scoparia); test: Test A postemergence; settings: Bassia scoparia, post-emergence, 240 h
Summary of the method: as §2

[13] = system: blackgrass (Alopecurus myosuroides); test: Test A postemergence; settings: Alopecurus myosuroides, post-emergence, 240 h
Summary of the method: as §2

[14] = system: giant foxtail (Setaria faberii); test: Test A postemergence; settings: Setaria faberi, post-emergence, 240 h
Summary of the method: as §2

[15] = system: barnyardgrass (Echinochloa crus-galli); test: Test A preemergence; settings: Echinochloa crus-galli, pre-emergence, 240 h, 0 to 100 scale where 0 is no effect and 100 is complete control, read-out: Barnyardgrass plant response rating
Summary of the method: as §2

[16] = system: ragweed (common ragweed, Ambrosia elatior); test: Test A preemergence; settings: Ambrosia artemisiifolia, pre-emergence, 240 h, 0 to 100 scale where 0 is no effect and 100 is complete control, read-out: Ragweed plant response rating
Summary of the method: as §2

[17] = system: ryegrass, Italian (Italian ryegrass, Lolium multiflorum); test: Test A preemergence; settings: Lolium multiflorum, pre-emergence, 240 h, 0 to 100 scale where 0 is no effect and 100 is complete control, read-out: Ryegrass, Italian plant response rating
Summary of the method: as §2

[18] = system: pigweed (Amaranthus retroflexus); test: Test A preemergence; settings: Amaranthus retroflexus, pre-emergence, 240 h, 0 to 100 scale where 0 is no effect and 100 is complete control, read-out: Pigweed plant response rating
[19] = system: Kochia (Kochia scoparia); test: Test A preemergence; settings: Bassia scoparia, pre-emergence, 240 h, 0 to 100 scale where 0 is no effect and 100 is complete control, read-out: Kochia plant response rating
Summary of the method: as §2

[20] = system: giant foxtail (Setaria faberii); test: Test A preemergence; settings: Setaria faberi, pre-emergence, 240 h, 0 to 100 scale where 0 is no effect and 100 is complete control, read-out: Foxtail, Giant plant response rating
Summary of the method: as §2

[21] = 125 g ai/ha, preemergence, approx. 10 d

COc1cccc([C@H]2CN(C)C(=O)[C@@H]2C(=O)Nc2cccc(F)c2F)c1F [Compound 1072]
pest or weed control at 250 g/ha [1]: 70% | pest or weed control at 250 g/ha [2]: 15% | pest or weed control at 250 g/ha [3]: 0% | pest or weed control at 250 g/ha [4]: 80% | plant injury at 125 g/ha ([5]; 125 g ai/ha, postemergence, visual injury on 0 to 100 scale (0 no effect, 100 complete control), approx. 10 d, read-out: Corn plant response rating): 0% | Corn plant response rating (crop injury, 0 = no effect, 100 = complete kill) at 31 g/ha ([5]; Postemergence, 31 g ai/ha, visual injury after approx. 10 d, 0 to 100 scale, 0 no effect, 100 complete control): 0% | pest or weed control at 125 g/ha ([6]; 125 g ai/ha, postemergence, visual injury on 0 to 100 scale (0 no effect, 100 complete control), approx. 10 d, read-out: Barnyardgrass plant response rating): 100% | pest or weed control at 31 g/ha ([6]; Postemergence, 31 g ai/ha, visual injury after approx. 10 d, 0 to 100 scale, 0 no effect, 100 complete control, read-out: Plant response rating, Barnyardgrass): 90% | plant injury at 125 g/ha ([7]; 125 g ai/ha, postemergence, visual injury on 0 to 100 scale (0 no effect, 100 complete control), approx. 10 d, read-out: Wheat plant response rating): 20% | plant injury at 31 g/ha ([7]; Postemergence, 31 g ai/ha, visual injury after approx. 10 d, 0 to 100 scale, 0 no effect, 100 complete control, read-out: Plant response rating, Wheat): 0% | pest or weed control at 125 g/ha ([8]; 125 g ai/ha, postemergence, visual injury on 0 to 100 scale (0 no effect, 100 complete control), approx. 10 d, read-out: Galium plant response rating): 0% | pest or weed control at 31 g/ha ([8]; Postemergence, 31 g ai/ha, visual injury after approx. 10 d, 0 to 100 scale, 0 no effect, 100 complete control, read-out: Plant response rating, Galium): 0% | pest or weed control at 125 g/ha ([9]; 125 g ai/ha, postemergence, visual injury on 0 to 100 scale (0 no effect, 100 complete control), approx. 10 d, read-out: Ragweed plant response rating): 0% | pest or weed control at 31 g/ha ([9]; Postemergence, 31 g ai/ha, visual injury after approx. 10 d, 0 to 100 scale, 0 no effect, 100 complete control, read-out: Plant response rating, Ragweed): 0% | pest or weed control at 125 g/ha ([10]; 125 g ai/ha, postemergence, visual injury on 0 to 100 scale (0 no effect, 100 complete control), approx. 10 d, read-out: Ryegrass, Italian plant response rating): 30% | pest or weed control at 31 g/ha ([10]; Postemergence, 31 g ai/ha, visual injury after approx. 10 d, 0 to 100 scale, 0 no effect, 100 complete control, read-out: Plant response rating, Ryegrass, Italian): 0% | pest or weed control at 125 g/ha ([11]; 125 g ai/ha, postemergence, visual injury on 0 to 100 scale (0 no effect, 100 complete control), approx. 10 d, read-out: Pigweed plant response rating): 0% | pest or weed control at 31 g/ha ([11]; Postemergence, 31 g ai/ha, visual injury after approx. 10 d, 0 to 100 scale, 0 no effect, 100 complete control, read-out: Plant response rating, Pigweed): 0% | pest or weed control at 125 g/ha ([12]; 125 g ai/ha, postemergence, visual injury on 0 to 100 scale (0 no effect, 100 complete control), approx. 10 d, read-out: Kochia plant response rating): 0% | pest or weed control at 31 g/ha ([12]; Postemergence, 31 g ai/ha, visual injury after approx. 10 d, 0 to 100 scale, 0 no effect, 100 complete control, read-out: Plant response rating, Kochia): 0% | pest or weed control at 125 g/ha ([13]; 125 g ai/ha, postemergence, visual injury on 0 to 100 scale (0 no effect, 100 complete control), approx. 10 d, read-out: Blackgrass plant response rating): 20% | pest or weed control at 31 g/ha ([13]; Postemergence, 31 g ai/ha, visual injury after approx. 10 d, 0 to 100 scale, 0 no effect, 100 complete control, read-out: Plant response rating, Blackgrass): 0% | pest or weed control at 125 g/ha ([14]; 125 g ai/ha, postemergence, visual injury on 0 to 100 scale (0 no effect, 100 complete control), approx. 10 d, read-out: Foxtail, Giant plant response rating): 90% | pest or weed control at 31 g/ha ([14]; Postemergence, 31 g ai/ha, visual injury after approx. 10 d, 0 to 100 scale, 0 no effect, 100 complete control, read-out: Plant response rating, Foxtail, Giant): 80% | pest or weed control at 31 g/ha ([15]; 31 g ai/ha, Preemergence): 90% | pest or weed control at 125 g/ha [15, 21]: 100% | pest or weed control at 31 g/ha ([16]; 31 g ai/ha, Preemergence): 0% | pest or weed control at 125 g/ha [16, 21]: 0% | pest or weed control at 31 g/ha ([17]; 31 g ai/ha, Preemergence): 0% | pest or weed control at 125 g/ha [17, 21]: 0% | pest or weed control at 31 g/ha ([18]; 31 g ai/ha, Preemergence): 0% | pest or weed control at 125 g/ha [18, 21]: 0% | pest or weed control at 31 g/ha ([19]; 31 g ai/ha, Preemergence): 0% | pest or weed control at 125 g/ha [19, 21]: 0% | pest or weed control at 31 g/ha ([20]; 31 g ai/ha, Preemergence): 90% | pest or weed control at 125 g/ha [20, 21]: 100%
